Assay [1] relates to HCV genotype 1a replicon cells Htat2ANeo. The assay is described as follows: 1a Replicon Assay (cell-based anti-NS5a ELISA). As to conditions: Hepatitis C virus, 72 h. Here is the method:
HCV genotype la replicon cells Htat2ANeo (University of Texas), containing neomycin phosphotransferase fusion protein and EMCV-IRES driven HCV polyprotein with cell culture adaptive mutations, and control cells, Et2AN.
Cells were cultured at 37° C./5% CO2 and split twice a week. G418 at 0.5 mg/ml and Blastocidin at 2 mg/ml were added to the culture medium but not the assay medium.
The culture medium consisted of DMEM with […] glucose and Glutamax (Gibco 61965-026) supplemented with 1× non-essential amino acids (Invitrogen 11140-035), 0.5 mg/ml G418 (Invitrogen 10131-027), 2 mg/ml Blastocidin (PAA) and 10% is Australian foetal calf serum (Invitrogen 10099-141).
Replicon and control cells were trypsinised and counted. Replicon cells were diluted to 90,000 cells/ml and 100 μl of this used to seed columns 2-4, […] and 10-12 of a black, clear bottom 96-well plate for every three compounds to be tested for IC50. Control cells were diluted to 60,000 cells/ml and 100 μl of this used to seed columns 1, 5 and 9 of the plate. Well H1 was left empty as the blank. Plates were then incubated at 37° C./5% CO2 for 24 h.
On the following day compound dilutions were prepared in medium at twice their desired final concentration in a clear round bottomed plate.
Controls and compounds were transferred from the dilution plate to the assay plates (containing the cells) at 100 μl/well in quadruplicate wells, one well containing control cells and 3 wells containing replicon cells.
Exception: no compound was added to row H of the plate and 100 μl of 1% DMSO was added to these instead. Plates were then incubated at 37° C. with 5% CO2 for 72 h. At the end of the incubation time, any reduction in cell viability was assayed and a cell-based enzyme linked immunosorbent assay (ELISA) was performed. The media/compound was removed from all wells and replaced with 100 μl/well serum-free media and 20 μl/well Cell Titre Blue (Promega G8081). Following incubation at 37° C./5% CO2 for 2 h plates were read on a microplate fluorometer (Molecular Devices) using an excitation of 570 nm and an emission of 590 nm The TD50, the concentration of drug required to reduce 50% of Cell Titre Blue relative to the DMSO controls, was calculated by plotting the fluorescence at 590 nm after substraction of background against drug concentration.
The media/Cell Titre Blue was removed and plates washed in PBS and gently tapped dry before addition of 50 μL per well of 75% acetone/25% methanol mixture for 3 minutes. The fixative was then discarded and wells were washed with PBS before addition of 100 μl/well of blocking solution (2% non-fat dry milk and 0.05% Tween-20 in 0.85% NaCl). Plates were then incubated at 37° C. in a shaking incubator for 60 min. Blocking solution was discarded and 50 μl of mouse anti-NS5a antibody (Virostat 1877) at 1:100 dilution in blocking buffer was added to all wells. Plates were incubated at 37° C. in a shaking incubator for 90 min Antibody was then discarded and plates were washed 4 times by immersion in 0.85% NaCl/0.05% Tween-20. After washing plates were tapped dry gently and 50 μl of secondary antibody (Dako P0260 Rabbit anti-mouse horseradish peroxidase) at 1:1000 dilution in blocking buffer was added to the wells. Plates were incubated at 37° C. in a shaking incubator for 60 min. Antibody was discarded and plates were washed 6 times by immersion in 0.85% NaCl/0.05% Tween-20 and once in PBS. Finally, 50 μl of substrate (SigmaFast ortho-phenylene diamine dihydrochloride (OPD)) was added per well and the colorimetric reaction was allowed to proceed in the dark for 5 to 15 minutes depending on the strength or the signal. The reaction was stopped by addition of 25 μl/well of 20% sulphuric acid. Plates were read on the SpectraMax microplate reader at 490 nm fixed wavelength. […]
For orientation: Replicon systems follow genome replication, usually without infectious particles.

Assay [2] concerns HCV replicon cells Huh 9B (genotype 1b). Kind of assay: 1b Replicon Assay (luciferase readout). The settings on record: Hepatitis C virus, Huh 9B replicon cells, 72 h, luciferase activity. The format is cell-based. On the procedure: HCV replicon cells Huh 9B (ReBlikon), containing the firefly luciferase-ubiquitin-neomycin phosphotransferase fusion protein and EMCV-IRES driven HCV polyprotein with cell culture adaptive mutations.
Cells were cultured at 37° C./5% CO2 and split twice a week. G418 at 0.5 mg/ml was added to the culture medium but not the assay medium.
The culture medium consisted of DMEM with […] glucose and Glutamax (Gibco 61965-026) supplemented with 1× non-essential amino acids (Invitrogen 11140-035), 0.5 mg/ml G418 (Invitrogen 10131-027) and 10% Australian foetal calf serum (Invitrogen 10099-141).
Replicon cells were trypsinised and counted. Cells were diluted to 100,000 cells/ml and 100 μl used to seed one opaque white 96-well plate (for the replicon assay) and one flat-bottomed clear plate (for the tox assay) for every five compounds to be tested for IC50. Wells G12 and H12 were left empty in the clear plate as the blank. Plates were then incubated at 37° C./5% CO2 for 24 h.
On the following day compound dilutions were prepared in medium at twice their desired final concentration in a clear round bottomed plate. All dilutions have a final DMSO concentration of 1%.
Controls and compounds were transferred from the dilution plates to the assay plates (containing the cells) at 100 μl/well in duplicate wells.
Exception: no compound was added to wells A1 and A2 of either plate and 100 μl of 1% DMSO was added to these instead. Plates were then incubated at 37° C./5% CO2 for 72 h.
At the end of the incubation time, the cells in the white plate were washed in PBS (100 μL per well) and dried by tapping before addition of 204 per well of lysis buffer (25 mM tris-phosphate, 8 mM MgCl2, 1 mM DTT, 1% Triton X-100, 15% glycerol; pH to 7.8 using KH2PO4 prior to Triton X-100 and glycerol addition). Aliquots of substrate (23.5 mM beetle luciferin (Promega E1603), 26 mM ATP (Sigma O-2060) in […] Tris buffer pH 7.8) were stored at −80° C. Prior to use, required amount of luciferin was thawed and diluted 1:50 in luciferase assay buffer (20 mM Tricine (Sigma T-0377), 1.07 mM magnesium carbonate hydroxide (Sigma M-5671), 0.1 mM EDTA (Sigma E-5134), 2.67 mM MgSO4(BDH 101514Y), 33.3 mM dithiothreitol (Sigma 150460) pH 7.8).
After 5-60 min incubation in lysis buffer at room temperature, a plate was inserted into the luminometer and 100 μl luciferase assay reagent was added by the injector of the luminometer. The signal was measured using a 1 second delay followed by a 4 second measurement programme. The IC50, the concentration of the drug required for reducing the replicon level by 50% in relation to the untreated cell control value, was calculated from the plot of the percentage reduction of the luciferase activity vs. drug concentration.

The mark [3] stands for this setting: read-out: pIC50 1b Replicon (converted).

Like-named read-outs stand apart in the source and are kept apart here.

For `CC(C)[C@H](N)C(=O)N1CCC[C@H]1c1ncc(-c2ccc(-c3ccc(C(=O)Nc4ccc(CN5CCS(=O)(=O)CC5)cc4)cc3)cc2)[nH]1` [Example 10, 4-[4-[2-[(2S)-1-[(2S)-2-amino-3-methyl-butanoyl]pyrrolidin-2-yl]-1H-imidazol-5-yl]phenyl]-N-[4-[(1,1-dioxo-1,4-thiazinan-4-yl)methyl]phenyl]benzamide], the IC50 in assay [1] (read-out: HCV IC50 Elisa 1a) is 320 nM; in assay [1] (read-out: pIC50 1a Replicon (converted)), 324 nM; in assay [2] (read-out: HCV IC50 1b Replicon), 65.2 nM; in assay [2] (setting [3]) it was 64.6 nM.
With `COC(=O)N[C@H](C(=O)N1CCC[C@@H]1c1ncc(-c2ccc(-c3ccc(C(=O)Nc4ccc(CN5CCS(=O)(=O)CC5)cc4)cc3)cc2)[nH]1)c1ccccc1` [Example 23, Methyl N-[(1S)-2-[(2R)-2-[5-[4-[4-[[4-[(1,1-dioxo-1,4-thiazinan-4-yl)methyl]phenyl]carbamoyl]phenyl]phenyl]-1H-imidazol-2-yl]pyrrolidin-1-yl]-2-oxo-1-phenyl-ethyl]carbamate], the results for the IC50 in assay [2] (read-out: HCV IC50 1b Replicon) and in assay [2] (setting [3]) were 109 nM and 110 nM, respectively.
For `COC(=O)N[C@@H](C(=O)N1CCC[C@@H]1c1ncc(-c2ccc(-c3ccc(C(=O)Nc4ccc(CN5CCS(=O)(=O)CC5)cc4)cc3)cc2)[nH]1)c1ccccc1` [Example 24, Methyl N-[(1R)-2-[(2R)-2-[5-[4-[4-[[4-[(1,1-dioxo-1,4-thiazinan-4-yl)methyl]phenyl]carbamoyl]phenyl]phenyl]-1H-imidazol-2-yl]pyrrolidin-1-yl]-2-oxo-1-phenyl-ethyl]carbamate], in that order: 101 nM and 102 nM.
As to `CCN(CC)[C@@H](C(=O)N1CCC[C@@H]1c1ncc(-c2ccc(-c3ccc(C(=O)Nc4ccc(CN5CCS(=O)(=O)CC5)cc4)cc3)cc2)[nH]1)c1ccccc1` [Example 25, 4-[4-[2-[(2R)-1-[(2R)-2-(diethylamino)-2-phenyl-acetyl]pyrrolidin-2-yl]-1H-imidazol-5-yl]phenyl]-N-[4-[(1,1-dioxo-1,4-thiazinan-4-yl)methyl]phenyl]benzamide], the IC50 in assay [2] (read-out: HCV IC50 1b Replicon) was 77.9 nM; in assay [2] (setting [3]) it was 77.6 nM.
As for `CN(C)[C@@H](C(=O)N1CCC[C@@H]1c1ncc(-c2ccc(-c3ccc(C(=O)Nc4ccc(CN5CCS(=O)(=O)CC5)cc4)cc3)cc2)[nH]1)c1ccccc1` [Example 26, 4-[4-[2-[(2R)-1-[(2R)-2-(dimethylamino)-2-phenyl-acetyl]pyrrolidin-2-yl]-1H-imidazol-5-yl]phenyl]-N-[4-[(1,1-dioxo-1,4-thiazinan-4-yl)methyl]phenyl]benzamide], the IC50 in assay [2] (read-out: HCV IC50 1b Replicon) was 55.7 nM; in assay [2] (setting [3]) it was 56.2 nM.
The corresponding values for `COC(=O)N[C@H](C(=O)N1CCC[C@H]1c1ncc(-c2cccc(-c3ccc(C(=O)Nc4ccc(CN5CCS(=O)(=O)CC5)cc4)cc3)c2)[nH]1)C(C)C` [Example 33, Methyl N-[(1S)-1-[(2S)-2-[5-[3-[4-[[4-[(1,1-dioxo-1,4-thiazinan-4-yl)methyl]phenyl]carbamoyl]phenyl]phenyl]-1H-imidazol-2-yl]pyrrolidine-1-carbonyl]-2-methyl-propyl]carbamate] are 159 nM and 158 nM.
For `COC(=O)N[C@@H](C)C(=O)N1CCC[C@H]1c1ncc(-c2cccc(-c3ccc(C(=O)Nc4ccc(CN5CCS(=O)(=O)CC5)cc4)cc3)c2)[nH]1` [Example 34, Methyl N-[(1S)-2-[(2S)-2-[5-[3-[4-[[4-[(1,1-dioxo-1,4-thiazinan-4-yl)methyl]phenyl]carbamoyl]phenyl]phenyl]-1H-imidazol-2-yl]pyrrolidin-1-yl]-1-methyl-2-oxo-ethyl]carbamate], the IC50 in assay [2] (read-out: HCV IC50 1b Replicon) is 252 nM; in assay [2] (setting [3]), 251 nM.
The corresponding values for `COC(=O)N[C@H](C(=O)N1CCC[C@H]1c1ncc(-c2cccc(-c3ccc(C(=O)Nc4ccc(CN5CCS(=O)(=O)CC5)cc4)cc3)c2)[nH]1)C(C)(C)C` [Example 35, Methyl N-[(1S)-1-[(2S)-2-[5-[3-[4-[[4-[(1,1-dioxo-1,4-thiazinan-4-yl)methyl]phenyl]carbamoyl]phenyl]phenyl]-1H-imidazol-2-yl]pyrrolidine-1-carbonyl]-2,2-dimethyl-propyl]carbamate] are 129 nM and 129 nM.
Consider `COC(=O)N[C@H](C(=O)N1CCC[C@H]1c1ncc(-c2cccc(-c3ccc(C(=O)Nc4ccc(CN5CCS(=O)(=O)CC5)cc4)cc3)c2)[nH]1)c1ccccc1` [Example 36, Methyl N-[(1S)-2-[(2S)-2-[5-[3-[4-[[4-[(1,1-dioxo-1,4-thiazinan-4-yl)methyl]phenyl]carbamoyl]phenyl]phenyl]-1H-imidazol-2-yl]pyrrolidin-1-yl]-2-oxo-1-phenyl-ethyl]carbamate], for which the IC50 in assay [2] (read-out: HCV IC50 1b Replicon) was 15.6 nM; in assay [2] (setting [3]), 15.5 nM.
Take `COC(=O)N[C@@H](C(=O)N1CCC[C@H]1c1ncc(-c2cccc(-c3ccc(C(=O)Nc4ccc(CN5CCS(=O)(=O)CC5)cc4)cc3)c2)[nH]1)c1ccccc1` [Example 37, Methyl N-[(1R)-2-[(2S)-2-[5-[3-[4-[[4-[(1,1-dioxo-1,4-thiazinan-4-yl)methyl]phenyl]carbamoyl]phenyl]phenyl]-1H-imidazol-2-yl]pyrrolidin-1-yl]-2-oxo-1-phenyl-ethyl]carbamate]: the IC50 was 21.5 nM in assay [2] (read-out: HCV IC50 1b Replicon) and 21.4 nM in assay [2] (setting [3]).

(Values after patent publication US20100215618A1, “NOVEL COMPOUNDS - 644” (Arrow Therapeutics Limited, priority 2009, published 2010).)
